Results reported in ChEMBL document CHEMBL1121750, “Adenosine deaminase inhibitors. Conversion of a single chiral synthon into erythro- and threo-9-(2-hydroxy-3-nonyl)adenines” (J Med Chem, 1981).

Molecular target: T1, Adenosine deaminase (Homo sapiens, UniProt P00813)
T1 sequence (P00813 whole entry): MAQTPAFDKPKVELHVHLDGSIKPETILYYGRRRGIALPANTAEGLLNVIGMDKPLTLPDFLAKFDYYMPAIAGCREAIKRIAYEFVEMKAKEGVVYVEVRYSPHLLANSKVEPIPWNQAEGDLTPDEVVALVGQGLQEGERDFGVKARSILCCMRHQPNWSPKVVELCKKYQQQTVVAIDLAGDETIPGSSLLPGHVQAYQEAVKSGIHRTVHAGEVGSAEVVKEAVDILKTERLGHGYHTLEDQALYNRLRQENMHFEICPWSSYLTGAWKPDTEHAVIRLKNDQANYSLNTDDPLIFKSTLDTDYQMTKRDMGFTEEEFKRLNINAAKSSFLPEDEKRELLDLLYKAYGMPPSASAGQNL
Assay: Compound was evaluated for the inhibition of adenosine deaminase

Compound	Ki [nM]
CCCCCC[C@@H]([C@@H](C)O)n1cnc2c(N)ncnc21 (stereo in doubt; erythro) [EHNA]	0.4
CCCCCC[C@H]([C@@H](C)O)n1cnc2c(N)ncnc21	122
CCCCCC[C@H]([C@H](C)O)n1cnc2c(N)ncnc21 [(+)-EHNA]	2
CCCCCC[C@@H]([C@@H](C)O)n1cnc2c(N)ncnc21 (stereo in doubt; (-)) [EHNA]	500
CCCCCC[C@@H]([C@H](C)O)n1cnc2c(N)ncnc21	80
OC[C@H]1O[C@@H](n2cnc3c2N=CNC[C@H]3O)[C@H](O)[C@@H]1O [COFORMYCIN]	0.1
